Assay results published in PubChem BioAssay (NCI).
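Cells were grown in 96-well plates and exposed to each compound for 48 hours at five concentrations; endpoints were interpolated linearly between bracketing concentrations, or set to the highest concentration if not reached. The concentration for 50% growth inhibition is given as GI50. TGI marks complete inhibition of growth.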

How the values were obtained:
Experiment in all cases: DTP human tumour cell line panel, 48 h
UO-31 renal = test system: UO-31 renal
MALME-3M melanoma = test system: MALME-3M melanoma
A549 NSCLC = test system: A549 NSCLC
SW-620 colon = test system: SW-620 colon
RPMI-8226 leukemia = test system: RPMI-8226 leukemia
K-562 leukemia = test system: K-562 leukemia
RXF 393 renal = test system: RXF 393 renal
COLO 205 colon = test system: COLO 205 colon
SF-539 CNS = test system: SF-539 CNS
SR leukemia = test system: SR leukemia
M14 melanoma = test system: M14 melanoma
TK-10 renal = test system: TK-10 renal
786-0 renal = test system: 786-0 renal

Row | Compound | TGI (UO-31 renal) [µM] | TGI (MALME-3M melanoma) [µM] | TGI (A549 NSCLC) [µM] | TGI (SW-620 colon) [µM] | TGI (RPMI-8226 leukemia) [µM] | TGI (K-562 leukemia) [µM] | TGI (RXF 393 renal) [µM] | TGI (COLO 205 colon) [µM] | TGI (SF-539 CNS) [µM] | TGI (SR leukemia) [µM] | TGI (M14 melanoma) [µM] | TGI (TK-10 renal) [µM] | TGI (786-0 renal) [µM] | GI50 (RXF 393 renal) [µM] | GI50 (UO-31 renal) [µM] | GI50 (COLO 205 colon) [µM] | GI50 (SF-539 CNS) [µM]
1 | CSCSCC(CO)NC(=O)/C(C)=C\c1c(C)[nH]c(=O)[nH]c1=O (configuration not stated) | > 250 | > 250 | > 250 | > 250 | > 250 | > 250 | > 250 | > 250 | > 250 |  |  |  |  |  |  |  | 
2 | O=[N+]([O-])c1ccc(-n2nc3ccc4c(no[n+]4[O-])c3n2)cc1 | > 100 | > 100 | > 100 | > 100 |  | > 100 |  | > 100 | > 100 | > 100 | > 100 | > 100 | > 100 |  |  |  | 
3 | Nc1nc(NCCCO)cc(=O)[nH]1 | > 100 | > 100 | > 100 | > 100 | > 100 | > 100 | > 100 | > 100 |  | > 100 | > 100 |  | > 100 |  |  |  | 
4 | O=C1/C(=C/c2ccccc2[N+](=O)[O-])N=C(c2ccccc2)N1c1nc2ccccc2s1 | > 100 |  | > 100 | > 100 | 61.6 | 44.7 | 33.7 |  | 81.3 | 34.3 | > 100 | > 100 | 58.8 |  |  |  | 
5 | O=C1NN(Cc2ccccc2)C(=O)N2CCC[C@@H]12 |  | > 100 | > 100 | > 100 |  |  | > 100 | > 100 | > 100 |  | > 100 | > 100 | > 100 |  |  |  | 
6 | Cn1c2ccccc2c(=O)c2c(O)cc3c(c21)C=CC(C)(C)O3 | > 25 | > 25 | > 25 | > 25 | > 25 | > 25 | > 25 | > 25 | > 25 |  |  |  |  |  |  |  | 
7 | CN(C)N1C(=O)S/C(=C\c2ccc([N+](=O)[O-])cc2)C1=O |  | > 100 | > 100 |  |  |  | > 100 | > 100 | > 100 | > 100 | > 100 | > 100 | > 100 |  |  |  | 
8 | O=C1O[C@H]2[C@H](OC(=O)c3cc(O)c(O)c(O)c3)[C@@H](OC(=O)c3cc(O)c(O)c4c3[C@@H]3C1=CC(=O)C(O)(O)C3(O)O4)[C@H](OC(=O)c1cc(O)c(O)c(O)c1)O[C@@H]2COC(=O)c1cc(O)c(O)c(O)c1 (some centres not stated) | > 100 | > 100 | > 100 | > 100 | > 100 | > 100 | > 100 | > 100 |  | > 100 | > 100 |  | > 100 |  |  |  | 
9 | Nc1ncnc2c1ncn2C1CCC(CP(=O)(O)O)C1 (configuration not stated) | > 100 | > 100 | > 100 | > 100 | > 100 |  | > 100 | > 100 | > 100 |  | > 100 | > 100 | > 100 |  |  |  | 
10 | CCCSc1ccc2[nH]c(N3C(=O)/C(=C/c4ccc(SC)cc4)N=C3c3ccccc3)cc2c1 | > 50 | > 50 | > 50 | > 50 |  | 5.43 | > 46.6 | > 43.2 | 48.8 |  | > 50 | > 50 | > 50 |  |  |  | 
11 | O=C(N/N=C/c1cc(Br)cc(Br)c1[O-])c1ccccc1O.O=C(N/N=C/c1cc(Br)cc(Br)c1[O-])c1ccccc1O.[Zn+2] | 10.6 | 8.77 | 21.6 | 19.5 |  |  | 11.9 | 20.9 | 10.7 | 4 | 8.3 | 15 |  |  |  |  | 
12 | N[C@@H]1CCN(c2c(F)cc3c(=O)c(C(=O)O)cn4c3c2Oc2cc3c(ccc5ccccc53)cc2-4)C1 | > 100 | 23 | > 100 | > 100 | > 100 | > 23.3 | > 100 | > 100 | 28.5 |  | > 100 |  | > 100 | 3.78 |  |  | 
13 | CCOC(=O)/C(=N/Nc1ccccc1)N1C(=S)C=C(C)NN(C)C1=S | > 100 |  | > 100 | > 100 | > 100 | > 100 | 20.1 | > 100 | > 100 | > 100 | > 100 | > 100 |  |  |  |  | 
14 | Cc1c(N=C/C=C/c2ccccc2)c(=O)n(-c2ccccc2)n1C | > 100 | 62.9 | > 100 | 58.4 | 38.6 |  | > 100 | > 100 | 64.4 |  | 38.9 | > 100 |  |  |  |  | 
15 | CC(=O)OCC1OC(n2c3c(c(-c4ccc(Cl)cc4)c(C#N)c2=S)CCCC3)C(OC(C)=O)C(OC(C)=O)C1OC(C)=O (configuration not stated) | > 100 | > 100 | > 100 |  |  | > 100 | 84.4 | > 100 | > 100 | > 100 | > 100 | > 100 | > 100 |  |  |  | 
16 | COc1ccc2c(c1)CCCN1CCc3ccccc3C21 (configuration not stated) |  | > 100 | > 100 | > 100 |  | > 100 | 73 | 59.3 | 75.8 | 61.2 | 51.5 | > 100 | 69.9 |  |  |  | 
17 | COc1cccc(/C=C2\S/C(=N/Nc3nc(C)c(C)s3)NC2=O)c1O | > 100 |  | > 100 | > 100 |  |  | > 100 | > 100 | > 100 |  | > 100 | > 100 | > 100 |  |  |  | 
18 | CSc1nc2c(c(=O)n1C)N=C(c1ccc([N+](=O)[O-])cc1)CC(c1ccccc1)N2 (configuration not stated) | > 100 | > 100 | > 100 | > 100 | > 100 | > 100 | > 100 | > 100 | > 100 | > 100 | > 100 |  | > 100 |  |  |  | 
19 | CCCc1cc(COC)c(C#N)c(=O)[nH]1 | > 100 | > 100 | > 100 | > 100 | > 100 | > 100 | > 100 | > 100 | > 100 |  | > 100 | > 100 | > 100 |  |  |  | 
20 | CC(C)C1NC(=O)CC(c2ccccc2)N(N=O)C1c1ccccc1 (configuration not stated) | > 100 | > 100 | > 100 | > 100 | > 100 | > 100 | > 100 | > 100 | > 100 |  |  |  |  |  |  |  | 
21 | COc1ccc(-c2c3c(n(C4OC(CO)C(O)C(O)C4O)c(=S)c2C#N)CCCC3)cc1 (configuration not stated) |  | > 100 | > 100 | > 100 |  |  | > 100 | > 100 | > 100 | > 100 | > 100 | > 100 | > 100 |  |  |  | 
22 | CC(Nc1ccc(Cl)c(Cl)c1)c1ccncc1 (configuration not stated) | 31.1 | > 100 | > 100 | 78.5 | 28.7 | > 100 | 54.3 | 31.4 | 56.4 |  | 68.2 | > 100 | 60.5 |  |  |  | 
23 | COc1cc(C2(c3ncc[nH]3)SSSCC2O)ccc1O (configuration not stated) | > 100 |  | > 100 | > 100 | > 100 | > 56.5 | 89.4 | > 59.8 | > 100 |  |  |  |  |  |  |  | 
24 | CCOC(=O)c1c(NC(=S)Nc2ccc(Cl)cc2)sc2c1CCN(C)C2 | > 100 |  | > 100 |  | > 100 | > 100 | > 100 | > 100 | > 100 |  | > 100 | > 100 | > 100 |  |  |  | 
25 | CC(=O)O[C@H]1C(=O)[C@@]2(C)[C@H]([C@H](OC(=O)c3ccccc3)[C@]3(O)C[C@H](OC(=O)[C@H](O)[C@@H](NC(=O)c4ccco4)c4ccccc4)C(C)=C1C3(C)C)[C@]1(OC(C)=O)CO[C@@H]1C[C@@H]2O | > 12.5 |  | > 12.5 | > 12.5 | < 0.00125 | < 0.00125 |  |  | 0.00454 | > 12.5 | > 12.5 | > 12.5 | > 12.5 |  |  |  | 
26 | CCCCc1ccc(Nc2nc(OC)c3ncn(C4CC(O)C(CO)O4)c3n2)cc1 (configuration not stated) | 35.7 | 42.7 | 39.3 | 39.8 | 71.9 | > 100 | 31.7 | 28.4 | 29 |  | 85.6 | 50.1 | 30.9 |  |  |  | 
27 | C/C(=N\NC(=O)c1ccccc1O)c1cccc(/C(C)=N/NC(=O)c2ccccc2O)n1.O=S(=O)([O-])[O-].[Fe+2] | > 100 | > 100 | > 100 | > 100 |  | > 100 | > 100 | > 100 | > 100 | > 100 | > 100 | > 100 |  |  | > 100 | > 100 | > 100
28 | [B-][P+](CC[P+]1([B-])[C@@H](C)[C@@H](O)[C@H](O)[C@@H]1C)(c1ccccc1)c1ccccc1OC (some centres not stated) | 21.7 | 24.4 | 28.8 | 31.9 | 55.4 | 70.8 | 31.2 | 32.6 | 31.6 |  | 34 | 32.5 | 60.8 |  |  |  | 
